“Also recorded” adds a separate entry of the source.
How the values were obtained:
[1] = system: Human pluripotent stem cells; assay: CyQuant quantitative detection of cell viability during induction; assay type: cell-based
Protocol: The Cyquant assay was used to perform the quantitative detection of cell viability, thus investigating the effect of LY2157299 on the physiological state of the cells during long-term culture of the cells; Among them, the LSB method was used as the control group. 96-well light-tight cell culture plates were coated; after the coating was complete, cells were seeded separately at 5×10^4 cell number per well and three sets of parallel replicates were set (the average of three sets was calculated as data) to repeat the procedure of example 2.1. Wherein, the culture procedures described previously were incubated at 37° C. with 5% CO2. Samples were taken on days 1, 5, 10, 15 and 20 for cell viability assay using CyQuant Kit (Invitrogen, cat. No: X12223). The aforementioned assay was operated according to the instructions with a Spectramax i3 Multi-Mode Microplate Reader (VWR, model number: ID3-STD) for data reading.

[2] = system: major histocompatibility complex (MHC) genes; assay: Q-PCR detection of MHC genes of induced neural stem cells; assay type: cell-based; details: compared with human pluripotent stem cells
Description: The major histocompatibility complex (MHC) genes of neural stem cells induced by LY2157299 was detected by Q-PCR method, and pluripotent stem cells (iPS) were used as control.

[3] = system: Human pluripotent stem cells; assay: Chemical induction of neural stem cells (neural rosette formation, cell morphology); assay type: cell-based
Description: Human pluripotent stem cells include embryonic pluripotent stem cells, such as the H19 cell line and human induced pluripotent stem cells. Wherein, the human induced pluripotent stem cells used in the present invention are obtained from the reprogramming of CD34^+ cells, which refers to “reprogramming culture medium and reprogramming induced pluripotent stem cell culture method” (the method in the patent ZL201910050800.7).
Human pluripotent stem cells are used to coat T25 cell culture flasks with Matrigel ([…] Technologies), and then placed in a 37° C. incubator for more than one hour after plating. Follow 1×10^6 Cells were seeded in T25 flasks for expansion and passage.
For neural induction, use 50 μg/mL poly-lysine (SIGMA, Cat. No.: P6407) to coat a 6-well culture plate, and incubate at 37° C. for more than 3 hours after plating; then use 5 μg/mL Laminin (SIGMA ALDRICH, Cat. No.: 12020) for further coat, and then place in a 37° C. incubator to incubate for more than 3 hours. When pluripotent stem cells reached 70% coverage, they were digested with EDTA at 37° C. for 5 min, and DMEM was used to stop cell digestion. Cells are washed and centrifuged at 2×10^5 the proportions of each flask and are re-seeded in T25 plates. Neural induction is performed using the medium of the present invention in combination with the neural inducing compound, and the medium is changed every day until the neural stem cell rosette is formed. […] Therefore, the single-molecule inducing method provided by this method can induce pluripotent stem cells to form neural rosette structures more efficiently and uniformly.
(§1) From the above results, it is known that the differentiation is not complete under the low concentration condition, and many different types of cells can be seen. However, neural stem cells obtained in high concentration condition are easily differentiated and cell stress appears.

neural stem cells [4] = assay: Directed differentiation of induced neural stem cells into neurons (immunofluorescence); assay type: cell-based, human
Protocol: The neural stem cells obtained by the LY inducing method in Example 2 were subjected to directed differentiation in NouvNeu001 basal medium. For neuronal differentiation, use 50 μg/mL polylysine (SIGMA ALDRICH, Cat. No.: P6407) to coat a 6-well culture plate, and place the plate in a 37° C. incubator and incubate for more than 3 hours until cells are seeded.
The neural stem cells obtained in example 2 were seeded at a density of 1×10^5 the ratio per flask was inoculated in T25 flasks, and 3 μM CHIR99021 (Selleck, Cat. No.: S2924), 10 μM SU5402 (Tocris, Cat. No.: 3300/1), 10 μM DAPT (Selleck, Cat. No.: 52215) were added to NouvNeu001 basal medium. Fresh medium was replaced every 3 days until day 21. The above cultures were incubated at 37° C. with 5% CO2.
The neural stem cells obtained in example 2 were seeded at a density of 1×10^5 the ratio per flask was inoculated in T25 flasks, and 1 μM Purmorphamine Sellek, Cat. No.: S3042) and […] TGF-β3 (Novoprotein, Cat. No.: CJ44) were added to NouvNeu001 basal medium to culture neural stem cells. Fresh medium was replaced every 3 days until day 30. The above cultures were incubated at 37° C. with 5% CO2.
The neural stem cells obtained in example 2 were seeded at a density of 1×10^5 the ratio per flask was inoculated in T25 flasks, and 0.5 μM retinyl acetate (SIGMA ALDRICH, Cat. No.: R7782) was added to NouvNeu001 basal medium. Fresh medium was replaced every 3 days until day 21. The above cultures were incubated at 37° C. with 5% CO2.
After induction and differentiation, the cells were harvested and identified by immunofluorescence staining: cells were fixed with 4% paraformaldehyde at room temperature for 40 minutes, washed twice with DPBS buffer; then permeabilized with 0.1% Triton X-100 for 5 minutes, and buffered with DPBS The cells were then washed twice with DPBS buffer containing 10% horse serum and 0.1% Triton X-100 at 4° C. overnight; the cells were washed with DPBS buffer and then washed with 2% horse serum and 0:1% Triton X-100. […]

neural stem cells [5] = assay: Q-PCR of marker genes during induction from pluripotent stem cells to neural stem cells; assay type: cell-based, human; details: different concentrations of LY2157299
Protocol: Transcriptional changes of different marker genes during induction from pluripotent stem cells to neural stem cells were detected by using Q-PCR. The induced pluripotent stem cells used in this example are neural stem cells derived by LY inducing method and LSB inducing method, respectively. Neural stem cells were prepared as described previously using Rneasy Mini or Micro Kit (QIAGEN) for total RNA extraction, in which […] RNA was used to synthesize cDNA with superscript III First-Strand Synthesis System (Invitrogen).
SYBR Premix Ex Taq (TaKaRa) and Thermal Cycler Dice Real Time System TaKaRa) were used to perform labeling and reactions for Quantitative PCR, with beta-Actin as internal reference. All the above data were analyzed with the delta-Ct method. Each set of trials was tested using three sets of replicates, and variance statistics were performed.
as §1

[6] = system: human induced pluripotent stem cells; assay: Brain organoid formation and diameter; assay type: cell-based; details: 12.5 μM LY2157299
Protocol: Organoid culture was performed with human induced pluripotent stem cells. Organoid inducing medium was formulated as follows: NouvNeu basal medium supplemented with 12.5 μM […]. Induced pluripotent stem cells were digested to single cells by Accutase, seeded in 15-bottom-ultra-low attachment 96-well plates at a ratio of 9000 cells/[…] of brain organoid inducing medium per well. 10 μM ROCK inhibitor Y-27632 (Selleck, 51049) was added, and the cells were placed in a 37° C., 5% carbon dioxide cell incubator for 24 hours (Panasonic, model: MCO-18AC). Y-27632-free fresh organoid inducing medium was changed the following day until day 10. Day 10 the organoids were transferred to ultra-low-attachment 6-well plates and the medium was changed to NouvNeu001 basal medium supplemented with 2% B27 cell culture additive. The culture was conducted at 37° C. in a 5% CO2 cell culture incubator on a horizontal rotator at 80 rpm until day 120.
The control experiment was carried out according to the published method (Clair B et. al, Nat Methods. 2019, November; 16 (11): 1169-1175). N2B27 was used as the basic medium for organ like culture. […]
Organoids were photographed by Leica Dmi8. The brain organoids were photographed and their diameters were measured. […]

HLA-DR = assay: Flow cytometry detection of HLA-DR antigens of induced neural stem cells; assay type: cell-based, human
Protocol: The HLA-DR antigens of neural stem cells induced by LY2157299 were detected by flow cytometry. HLA-DR is an MHC class II molecule whose expression is critical for the antigen-presenting function of cells and plays a key role in adoptive immune responses. The induced neural stem cells obtained in Example 2 were digested with EDTA, washed with DPBS, centrifuged to remove the supernatant, and 10^6 Cells were resuspended in 100 μL of diluted primary antibody (CD45 PerCP, Abeam, Cat. No. ab157309; HLA-DR FITC, CST, Cat. No. 54126), incubated on ice for 1 hour in the dark, centrifuged to remove supernatant, and cells were resuspended in 500 μL of antibody dilution buffer (CST) and analyzed on a flow cytometer. Samples incubated without primary antibody were used as controls. The results are shown in FIG. 7, FIG. 7a is a negative control, FIG. 7b is the HLA-DR detection result of the neural stem cells obtained by LY2157299 induction.

[7] = Freezing point osmometer: osmolality of the culture system; assay type: physicochemical
Protocol: A fully automated freezing point osmometer (FM-8P, Shanghai Yida Instruments Co., Ltd.) was used to detect the effects of different concentrations of sodium chloride on the osmolality of the culture system, and the specific operations were enrolled in the product instructions (FM-8P, Shanghai Vida Instruments Co., Ltd.). The test results are detailed in FIG. 2a. […] However, when the concentration reached […], the osmolality of the culture system already exceeded the cell culture limit of 320 mOsm/kg.

recombinant insulin: component of the basal medium
rate of cell proliferation versus concentration (CyQuant) ([1]; different concentrations, long-term culture): positively correlated with the rate of cell proliferation

Cc1cccc(-c2nn3c(c2-c2ccnc4ccc(C(N)=O)cc24)CCC3)n1 [LY2157299, 4-(2-(6-methylpyridin-2-yl)-5,6-dihydro-4h-pyrrolo[1,2-b]pyrazol-3-yl) quinoline-6-carboxamide]
expression of MHC associated genes in induced neural stem cells [2]: significantly lower than human induced pluripotent stem cells; also recorded: extremely low levels | cell population obtained by chemical induction ([3]; 12.5 μM LY2157299): a uniform cell population | cell population obtained by chemical induction ([3]; 25 μM LY2157299): a mixed population of neural cells was obtained | cell stress on chemical induction ([3]; 25 μM LY2157299): cells showed signs of stress with intracellular vacuoles | cell population obtained by chemical induction ([3]; 20 nm LY2157299): a mixed population of cells including neural cells was obtained | nociceptor neuron differentiation of induced neural stem cells: marker expression (neural stem cells [4]; CHIR99021, SU5402, DAPT in NouvNeu001 until day 21): able to express the nociceptor neuronal markers SCN11A and Nestin | dopaminergic neuron differentiation of induced neural stem cells: marker expression (neural stem cells [4]; Purmorphamine and TGF-β3 in NouvNeu001 until day 30): could express the mature dopaminergic neuron specific markers Tyrosine Hydroxylase (TH) and Pitx3 | photoreceptor neuron differentiation of induced neural stem cells: marker expression (neural stem cells [4]; retinyl acetate in NouvNeu001 until day 21): could express the photoreceptor neuronal markers OPSIN and CRX | number of neural cells induced (CyQuant) ([1]; samples on days 1, 5, 10, 15 and 20, LSB method as control): more number of neural cells compared with LSB method | Pax6 expression versus concentration (Q-PCR) (neural stem cells [5]): positively correlated with Pax6 expression | apoptosis gene CASP3 versus concentration (Q-PCR) (neural stem cells [5]): positively correlated with apoptosis | generation of cerebral organoids [6]: can induce the generation of cerebral organoids | HLA-DR antigen expression of induced neural stem cells (HLA-DR): do not express HLA-DR; also recorded: negative

[Cl-].[Na+] [sodium chloride]
osmotic pressure of the culture system versus concentration ([7]; different concentrations of sodium chloride): linear increase | osmolality of the culture system ([7]; sodium chloride concentration 1 μg/mL): > 320 mOsm/kg

— US12590954B2, “Neural stem cell-induced differential medium and induction differentiation method” (IREGENE THERAPEUTICS, CO., LTD., priority 2020, dated 2026)
